Calls of active or inactive are those of the source.
Experiments:
Protein skinhead-1 = biological target: T1, Protein skinhead-1 (Caenorhabditis elegans, UniProt P34707); format: functional
T1 sequence (P34707 whole entry): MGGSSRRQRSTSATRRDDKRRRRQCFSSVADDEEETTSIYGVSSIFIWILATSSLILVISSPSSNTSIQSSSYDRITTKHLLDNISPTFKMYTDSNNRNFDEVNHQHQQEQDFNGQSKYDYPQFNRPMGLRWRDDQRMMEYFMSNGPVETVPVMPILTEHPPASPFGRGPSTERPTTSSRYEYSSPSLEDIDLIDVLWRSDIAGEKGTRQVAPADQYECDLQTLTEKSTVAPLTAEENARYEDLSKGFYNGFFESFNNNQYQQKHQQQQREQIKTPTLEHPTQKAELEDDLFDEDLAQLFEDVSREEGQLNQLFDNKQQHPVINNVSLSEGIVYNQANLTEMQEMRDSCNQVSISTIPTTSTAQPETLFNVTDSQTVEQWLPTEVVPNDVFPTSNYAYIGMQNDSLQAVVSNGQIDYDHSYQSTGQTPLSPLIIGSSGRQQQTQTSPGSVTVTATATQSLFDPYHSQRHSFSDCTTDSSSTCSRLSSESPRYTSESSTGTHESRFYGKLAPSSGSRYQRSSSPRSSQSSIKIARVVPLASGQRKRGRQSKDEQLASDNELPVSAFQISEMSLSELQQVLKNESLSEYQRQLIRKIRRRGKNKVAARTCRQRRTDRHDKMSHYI

[1] = biological target: T2, Heat shock factor protein 1 (Mus musculus, UniProt P38532); assay: inhibition of MG132-induced HSE-luciferase signal, confirmation, cell-based, NIH3T3, luminescence, dose retest (AID 2382); format: functional;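 also: NIH3T3 fibroblasts with HSF1-driven luciferase reporter stressed by proteasome inhibitor MG132; luminescence from HSF1-driven luciferase expression after 8 hours of MG132 stress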
T2 sequence (P38532 whole entry): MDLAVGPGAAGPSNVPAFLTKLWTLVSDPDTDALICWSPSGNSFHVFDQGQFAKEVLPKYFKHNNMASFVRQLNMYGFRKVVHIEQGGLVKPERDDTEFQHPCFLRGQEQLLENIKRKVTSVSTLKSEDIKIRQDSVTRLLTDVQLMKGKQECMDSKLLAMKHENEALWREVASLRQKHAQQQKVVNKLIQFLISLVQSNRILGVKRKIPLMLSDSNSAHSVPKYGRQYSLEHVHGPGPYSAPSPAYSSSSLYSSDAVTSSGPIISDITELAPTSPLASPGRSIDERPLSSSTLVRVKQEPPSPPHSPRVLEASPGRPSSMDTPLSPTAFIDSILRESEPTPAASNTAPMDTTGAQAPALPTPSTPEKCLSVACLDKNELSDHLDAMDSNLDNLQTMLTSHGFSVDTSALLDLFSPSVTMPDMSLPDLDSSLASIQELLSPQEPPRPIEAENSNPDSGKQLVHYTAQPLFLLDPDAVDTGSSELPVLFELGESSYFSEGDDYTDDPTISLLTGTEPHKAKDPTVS

H9c2 = assay: cells; format: functional, cell-based; conditions: Rattus norvegicus, H9c2, Myocardium;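 also: confirmatory concentration-response retest of ultra-high-throughput screening hits for modulation of myocardial damage; cell death induced by hydrogen peroxide oxidative stress; compound pretreatment for 60 min then peroxide exposure for 2 h; potency is for protecting the cells against peroxide damage rather than for killing them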
[2] = biological target: T3, Polyadenylate-binding protein 1 (Homo sapiens, UniProt P11940); assay: PABP1 MLLE–PAM2 interaction inhibitors, dose response, miRNA deadenylation inhibitor project, biochemical, fluorescence polarization, Cy5-PAM2 peptide, secondary (AID 602260); format: functional; conditions: read-out: IC50_Mean
[3] = biological target: T3, Polyadenylate-binding protein 1; assay: PABP1 MLLE–PAM2 binding inhibitor potency, dose response, biochemical, fluorescence polarization, FITC-PAM2 peptide (AID 602259); format: functional; conditions: read-out: IC50_Mean
[4] = biological target: T4, Ubiquitin-conjugating enzyme E2 N (Homo sapiens, UniProt P61088); format: functional;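 also: Dose-response confirmation in a TR-FRET assay detecting UBC13-driven polyubiquitin chain formation, inhibition measured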
T4 sequence (P61088 whole entry): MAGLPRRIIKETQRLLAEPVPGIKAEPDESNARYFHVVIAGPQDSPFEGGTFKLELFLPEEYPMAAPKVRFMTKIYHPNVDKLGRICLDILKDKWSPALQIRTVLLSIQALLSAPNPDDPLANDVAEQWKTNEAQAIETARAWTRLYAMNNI

Fatty acid synthase [5] = biological target: T5, Fatty acid synthase (Homo sapiens, UniProt P49327); assay: FAS thioesterase domain inhibitors, dose response, biochemical, endpoint fluorescence intensity, uHTS hits (AID 624327); format: functional;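 also: fluorescence from hydrolysis of an O-methyl fluorescein acyl ester substrate by the enzyme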
Fatty acid synthase [6] = biological target: T5, Fatty acid synthase; assay: FAS thioesterase domain inhibitors, dose response, biochemical, kinetic fluorescence intensity (AID 624326); format: functional;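 also: rate of fluorescence rise from hydrolysis of a fluorogenic O-methyl fluorescein ester substrate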
[7] = Luminescence Cell-Based Dose Confirmation HTS to Identify Activators of 5'UTR Stem-Loop Driven Alpha-Synuclein mRNA Translation in H4 Neuroglioblastoma Cells. [Related pubchem assays: 1829 (Project Summary), 1814 (Primary HTS)]; format: functional
[8] = Luminescence Cell-Based Dose Response HTS to Identify Activators of Luciferase Translation or Activity in H4 […] Cells. [Related pubchem assays: 1829 (Project Summary), 1814 (Primary HTS)]; format: functional
H4 = assay: Luminescence Cell-Based Dose Response HTS to Identify Activators of 5'UTR Stem-Loop Driven Prion Protein mRNA Translation in H4 Neuroglioblastoma Cells. [Related pubchem assays: 1829 (Project Summary), 1814 (Primary HTS)]; format: functional; conditions: Homo sapiens

T3 sequence (P11940 whole entry): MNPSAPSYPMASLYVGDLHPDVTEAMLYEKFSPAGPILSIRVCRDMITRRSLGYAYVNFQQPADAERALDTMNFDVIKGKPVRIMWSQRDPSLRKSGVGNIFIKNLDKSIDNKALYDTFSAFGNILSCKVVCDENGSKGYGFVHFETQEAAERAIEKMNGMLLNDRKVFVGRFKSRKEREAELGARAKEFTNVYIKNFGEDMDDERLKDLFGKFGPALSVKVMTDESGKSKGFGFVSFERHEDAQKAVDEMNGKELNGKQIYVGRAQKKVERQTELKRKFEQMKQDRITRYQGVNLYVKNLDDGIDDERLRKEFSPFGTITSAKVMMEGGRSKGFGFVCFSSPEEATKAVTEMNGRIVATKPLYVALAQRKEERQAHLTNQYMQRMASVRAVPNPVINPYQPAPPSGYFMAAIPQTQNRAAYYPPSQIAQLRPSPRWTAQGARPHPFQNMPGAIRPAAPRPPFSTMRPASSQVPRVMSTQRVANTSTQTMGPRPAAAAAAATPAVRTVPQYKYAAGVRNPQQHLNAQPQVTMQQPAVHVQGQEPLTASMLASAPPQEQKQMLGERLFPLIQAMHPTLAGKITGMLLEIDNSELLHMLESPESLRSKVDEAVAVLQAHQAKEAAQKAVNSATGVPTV
T5 sequence (P49327 whole entry, the tested form may be a part): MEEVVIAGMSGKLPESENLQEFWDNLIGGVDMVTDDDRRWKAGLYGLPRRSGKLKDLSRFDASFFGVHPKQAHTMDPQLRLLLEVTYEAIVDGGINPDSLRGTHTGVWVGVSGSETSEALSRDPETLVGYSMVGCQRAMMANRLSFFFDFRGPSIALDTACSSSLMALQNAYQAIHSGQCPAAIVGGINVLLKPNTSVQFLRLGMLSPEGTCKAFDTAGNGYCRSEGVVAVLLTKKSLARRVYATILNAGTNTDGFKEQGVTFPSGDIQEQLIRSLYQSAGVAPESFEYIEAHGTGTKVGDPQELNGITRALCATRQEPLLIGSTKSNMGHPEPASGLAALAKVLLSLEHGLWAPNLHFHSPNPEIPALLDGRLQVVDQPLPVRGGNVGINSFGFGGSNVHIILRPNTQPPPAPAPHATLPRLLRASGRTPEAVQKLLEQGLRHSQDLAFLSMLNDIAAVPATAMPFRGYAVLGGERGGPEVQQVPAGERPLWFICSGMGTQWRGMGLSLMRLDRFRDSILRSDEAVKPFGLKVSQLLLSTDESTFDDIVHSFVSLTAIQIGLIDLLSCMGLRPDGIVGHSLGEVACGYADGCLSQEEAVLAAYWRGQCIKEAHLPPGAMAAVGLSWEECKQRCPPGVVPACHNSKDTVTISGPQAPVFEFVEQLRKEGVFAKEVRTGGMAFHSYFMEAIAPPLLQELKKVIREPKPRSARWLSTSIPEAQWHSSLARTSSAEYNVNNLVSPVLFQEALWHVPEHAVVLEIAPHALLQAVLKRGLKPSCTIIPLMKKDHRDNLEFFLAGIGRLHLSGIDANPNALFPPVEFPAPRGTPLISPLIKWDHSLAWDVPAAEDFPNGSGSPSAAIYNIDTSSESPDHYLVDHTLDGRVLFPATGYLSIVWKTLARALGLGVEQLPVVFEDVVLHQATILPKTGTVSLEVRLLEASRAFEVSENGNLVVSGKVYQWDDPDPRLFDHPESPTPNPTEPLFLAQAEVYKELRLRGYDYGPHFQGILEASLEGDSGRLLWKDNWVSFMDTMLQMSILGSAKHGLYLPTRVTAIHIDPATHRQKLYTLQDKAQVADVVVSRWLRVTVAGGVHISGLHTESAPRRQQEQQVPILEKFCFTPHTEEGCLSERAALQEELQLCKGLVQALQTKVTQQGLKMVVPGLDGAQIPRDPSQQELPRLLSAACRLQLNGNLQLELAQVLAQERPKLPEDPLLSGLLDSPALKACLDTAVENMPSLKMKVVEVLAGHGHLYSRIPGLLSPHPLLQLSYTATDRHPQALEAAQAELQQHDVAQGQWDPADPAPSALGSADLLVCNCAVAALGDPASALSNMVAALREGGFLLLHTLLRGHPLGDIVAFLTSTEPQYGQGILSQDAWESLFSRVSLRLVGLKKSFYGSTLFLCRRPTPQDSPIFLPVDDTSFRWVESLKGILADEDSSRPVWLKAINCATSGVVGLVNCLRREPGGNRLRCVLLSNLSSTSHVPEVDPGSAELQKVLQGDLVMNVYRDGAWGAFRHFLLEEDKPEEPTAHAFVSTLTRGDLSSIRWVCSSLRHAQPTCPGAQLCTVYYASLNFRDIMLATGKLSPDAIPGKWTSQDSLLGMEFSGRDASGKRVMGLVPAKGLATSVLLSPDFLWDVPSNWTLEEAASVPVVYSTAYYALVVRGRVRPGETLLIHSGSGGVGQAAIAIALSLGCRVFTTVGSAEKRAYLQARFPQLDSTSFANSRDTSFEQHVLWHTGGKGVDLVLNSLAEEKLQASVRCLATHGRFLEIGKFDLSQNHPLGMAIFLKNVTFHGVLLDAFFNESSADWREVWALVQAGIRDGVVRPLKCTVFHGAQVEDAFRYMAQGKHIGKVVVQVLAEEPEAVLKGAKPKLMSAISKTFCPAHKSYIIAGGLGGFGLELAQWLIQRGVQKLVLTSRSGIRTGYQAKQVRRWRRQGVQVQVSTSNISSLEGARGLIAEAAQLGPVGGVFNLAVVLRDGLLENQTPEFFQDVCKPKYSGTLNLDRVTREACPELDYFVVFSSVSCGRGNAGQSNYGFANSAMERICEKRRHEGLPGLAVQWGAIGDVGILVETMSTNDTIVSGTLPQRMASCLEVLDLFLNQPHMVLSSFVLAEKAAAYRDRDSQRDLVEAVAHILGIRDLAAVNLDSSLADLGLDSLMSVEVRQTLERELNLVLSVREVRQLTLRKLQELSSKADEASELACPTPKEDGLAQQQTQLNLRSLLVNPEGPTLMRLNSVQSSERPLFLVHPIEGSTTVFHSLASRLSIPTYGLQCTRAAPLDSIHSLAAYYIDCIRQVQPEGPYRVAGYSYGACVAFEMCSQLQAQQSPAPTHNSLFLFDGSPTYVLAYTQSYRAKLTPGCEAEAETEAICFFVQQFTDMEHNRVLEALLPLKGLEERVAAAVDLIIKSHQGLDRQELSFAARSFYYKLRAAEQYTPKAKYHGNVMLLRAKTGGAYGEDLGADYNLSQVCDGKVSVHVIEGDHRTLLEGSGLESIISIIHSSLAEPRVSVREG

SMILES: O=C1CC(NNC(=O)c2ccc(Br)cc2)C(=O)N1 (centres undefined)
- IC50 (Protein skinhead-1): > 100 µM (inactive)

SMILES: NS(=O)(=O)c1ccc(CCNC(=O)c2ccc(C#CC3(O)CCCCC3)cc2)cc1
- EC50 [1]: 7.97 µM (active)
- IC50 (H9c2): > 79 µM (inactive)

SMILES: CCCN1C(=O)/C(=C/c2nc(O)c3ccccc3n2)c2ccccc21
- IC50 (H9c2): > 79 µM (inactive)

SMILES: Cc1cc(C)nc(SCNC(=O)c2ccc(Cl)cc2)n1
- IC50 [2]: > 66 µM (inactive)
- IC50 [3]: > 66 µM (inactive)

SMILES: CCOC(=O)C1=C(c2ccccc2)O/C(=C(/C(=O)OC)C(F)(F)F)S1
- IC50 [4]: > 20 µM (inactive)

SMILES: NC(=NOC(=O)CCC1CCCCC1)c1cccc([N+](=O)[O-])c1
- IC50 (Fatty acid synthase [5]): 6.09 µM (active)
- IC50 (Fatty acid synthase [6]): 6 µM (active)

SMILES: COc1ccc(CCNC(=O)Cn2c(=O)n(-c3ccc(C)c(F)c3)c(=O)c3sccc32)cc1OC
- IC50 [4]: > 20 µM (inactive)

SMILES: O=C(Nc1ccccc1N1CCCC1)c1cc2ccccc2o1
- EC50 [7]: 6.1 µM (active)
- EC50 [8]: 5.42 µM (active)
- EC50 (H4): 56.5 µM (active)
- IC50 [2]: > 66 µM (inactive)
- IC50 [3]: > 66 µM (inactive)

SMILES: O=C(Cc1cccc(C(F)(F)F)c1)OCN1C(=O)c2ccccc2C1=O
- IC50 (Fatty acid synthase [5]): 16.8 µM (active)
- IC50 (Fatty acid synthase [6]): 11.6 µM (active)

SMILES: Cc1cccc(NC(=O)CNC(=O)COC(=O)c2ccc(C(C)(C)C)cc2)c1C
- IC50 (Fatty acid synthase [5]): 14.6 µM (active)
- IC50 (Fatty acid synthase [6]): 20.7 µM (inactive)

SMILES: COc1ccc(C(=O)Nc2ccc3oc(-c4cccc(F)c4)nc3c2)cc1OC
- IC50 [4]: > 20 µM (inactive)

SMILES: CCOC(=O)C1CCN(C(=O)c2ccc3c(c2)S(=O)(=O)c2ccccc2C3=O)CC1
- IC50 (Protein skinhead-1): > 100 µM (inactive)

SMILES: Cc1c(C2=CCN(S(=O)(=O)c3ccc(Cl)cc3)CC2)c2ccccc2n1C
- IC50 (Protein skinhead-1): > 100 µM (inactive)

SMILES: O=C(NC1CCCCCC1)C(=S)N1CCOCC1
- IC50 [2]: > 66 µM (inactive)
- IC50 [3]: > 66 µM (inactive)

SMILES: CC(OC(=O)Cn1[nH]c(=O)c2ccccc2c1=O)C(=O)NC1(C#N)CCCCC1 (centres undefined)
- IC50 (H9c2): > 79 µM (inactive)

SMILES: COc1ccccc1NS(=O)(=O)c1cc(NC(=O)Cc2nnc(O)c3ccccc23)ccc1Cl
- IC50 (H9c2): 20 µM (active)

SMILES: COc1cc(-c2cc(NC(C)=O)c3ncc(-c4ccccc4)n3c2)cc(OC)c1OC
- IC50 (H9c2): > 79 µM (inactive)

SMILES: CCN(CC)S(=O)(=O)c1ccc(-n2cnc3cc(C)c(C)cc32)nc1
- IC50 (Fatty acid synthase [5]): 11.4 µM (active)
- IC50 (Fatty acid synthase [6]): 12.8 µM (active)

SMILES: Cc1nn(C)cc1C(C(=O)NC1CCCCC1)N(C(=O)Cc1cccs1)c1ccc(C(C)C)cc1 (centres undefined)
- IC50 (Fatty acid synthase [5]): 8.86 µM (active)
- IC50 (Fatty acid synthase [6]): 4.06 µM (active)

SMILES: COc1ccc(C(O)CNc2ccc(C)cc2)cc1 (centres undefined)
- IC50 (Protein skinhead-1): > 100 µM (inactive)

SMILES: CCN(CC)CCNC(=O)c1cc2c(=O)n(CC)c3ccccc3c2s1
- IC50 [4]: > 20 µM (inactive)

SMILES: Brc1ccc(-c2ccc(/C=N/Nc3nc(N4CCOCC4)nc(N4CCOCC4)n3)o2)cc1
- IC50 (H9c2): > 79 µM (inactive)

From ChEMBL document CHEMBL1201862, “PubChem BioAssay data set” (2004)
